According to ChEMBL document CHEMBL1201862, “PubChem BioAssay data set” (2004):
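1) Cells in 96-well plates. 2) Compound, 48 h, 5 concentrations. 3) Linear interpolation between surrounding doses. 4) Unreached endpoint = highest concentration. The concentration for 50% growth inhibition is given as GI50.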 Active and inactive are the calls of the source. No stated cut-off is given here; in the data, active = GI50 up to about 1.1 µM and inactive = higher.

What was measured:
Experiment in all cases: NCI-60 cell line screen, 48 h
[1] = system: LXFL 529
[2] = system: M19-MEL
[3] = system: DMS-114
[4] = system: SNB-78
[5] = system: DLD-1
[6] = system: DMS-273
[7] = system: XF498
[8] = system: RXF 631
[9] = system: HOP-18

SMILES | GI50 [1] | GI50 [2] | GI50 [3] | GI50 [4] | GI50 [5] | GI50 [6] | GI50 [7] | GI50 [8] | GI50 [9]
COC(=O)C1[C@H](c2cc(OC)c(OC)c(OC)c2)OC(=O)C1(C(=O)OC)C(=O)c1ccc2c(c1)OCO2 (stereo partly drawn) | > 100 µM (inactive) | > 100 µM (inactive) | > 100 µM (inactive) | > 100 µM (inactive) | > 100 µM (inactive) | > 100 µM (inactive) | > 100 µM (inactive) | – | –
O=C1NC(=O)/C(=N\c2cccc3c(=O)[nH][nH]c(=O)c23)C(c2nc3ccccc3s2)C1=O (stereo not drawn) | > 100 µM (inactive) | > 100 µM (inactive) | > 100 µM (inactive) | > 100 µM (inactive) | > 100 µM (inactive) | > 100 µM (inactive) | 32.1 µM (inactive) | > 100 µM (inactive) | > 100 µM (inactive)
O=c1[nH]cc(COCCO)c(=O)[nH]1 | > 100 µM (inactive) | > 100 µM (inactive) | > 100 µM (inactive) | > 100 µM (inactive) | > 100 µM (inactive) | > 100 µM (inactive) | > 100 µM (inactive) | > 100 µM (inactive) | > 100 µM (inactive)
COC(=N)/C(=C1\OC(=N)C(c2ccc(Cl)cc2)=C1O)c1ccc(Cl)cc1 | 74.3 µM (inactive) | > 100 µM (inactive) | > 100 µM (inactive) | > 100 µM (inactive) | > 100 µM (inactive) | > 100 µM (inactive) | > 100 µM (inactive) | – | > 100 µM (inactive)
N=C(N)NS(=O)(=O)c1ccc(NC(=O)c2cccc3c(N)c4ccccc4nc23)cc1 | 60.1 µM (inactive) | > 100 µM (inactive) | 61.2 µM (inactive) | > 100 µM (inactive) | > 100 µM (inactive) | > 100 µM (inactive) | > 100 µM (inactive) | > 100 µM (inactive) | –
CCSc1nc2n(c(=S)n1)CCN2C | 13.4 µM (inactive) | 13.5 µM (inactive) | 18.7 µM (inactive) | – | – | 18.1 µM (inactive) | – | – | –
COc1ccc(OC)c(NC(=O)C2=C(C)NC(C)=C(C(=O)Nc3cc(OC)ccc3OC)C2c2ccccc2)c1 | > 100 µM (inactive) | > 100 µM (inactive) | 96.2 µM (inactive) | > 100 µM (inactive) | 21.7 µM (inactive) | > 100 µM (inactive) | – | – | 1.04 µM (active)
COc1ccc(C2NC(c3ccc(OC)cc3)C(C)C(=O)C2C)cc1 (stereo not drawn) | > 100 µM (inactive) | > 100 µM (inactive) | 64.4 µM (inactive) | > 100 µM (inactive) | > 100 µM (inactive) | > 100 µM (inactive) | – | > 100 µM (inactive) | > 100 µM (inactive)
COc1ccc2c(c1)[n+]([O-])c(-c1ccc(Cl)c(Cl)c1)c(N)[n+]2[O-] | 35.6 µM (inactive) | 28.8 µM (inactive) | 16.3 µM (inactive) | 53.6 µM (inactive) | 33.9 µM (inactive) | 23.8 µM (inactive) | – | 21.3 µM (inactive) | 24.3 µM (inactive)
COc1ccccc1N1C(=O)C2c3[nH]c4ccccc4c3C3CCC(C(C)(C)C)CC3C2C1=O (stereo not drawn) | > 100 µM (inactive) | > 100 µM (inactive) | > 100 µM (inactive) | > 100 µM (inactive) | > 100 µM (inactive) | > 100 µM (inactive) | > 100 µM (inactive) | – | > 100 µM (inactive)
O=C(CC(=O)c1ccccc1)C(=O)NC12CC3CC(CC(C3)C1)C2 | > 100 µM (inactive) | > 100 µM (inactive) | > 42.4 µM (inactive) | > 100 µM (inactive) | > 47.5 µM (inactive) | > 47 µM (inactive) | > 100 µM (inactive) | – | > 100 µM (inactive)
CCOc1cc2c(C(=O)CC)c(O)ccc2o1 | 64.9 µM (inactive) | 31.1 µM (inactive) | > 54.5 µM (inactive) | > 96.6 µM (inactive) | – | > 100 µM (inactive) | > 49.9 µM (inactive) | – | –
O=C1CC(C2(O)C(=O)Nc3ccc([N+](=O)[O-])cc32)c2ccccc21 (stereo not drawn) | 16.3 µM (inactive) | 29.2 µM (inactive) | 9.48 µM (inactive) | 31.6 µM (inactive) | 40 µM (inactive) | 20.9 µM (inactive) | – | 16.4 µM (inactive) | 28.1 µM (inactive)
